This is an account of results in patent US4341868A, “Method and test composition for the determination of the substrate for xanthine oxidase” (Kyowa Hakko Kogyo Co., Ltd., priority 1978, dated 1982).

For data set [1], the system named is xanthine oxidase. Briefly: Substrate specificity (formed hydrogen peroxide, Method II). The class given is biochemical, Enterobacter cloacae. The following applies: for Relative activity: activity on xanthine defined as 100, 0.1 ml of 5 mM substrate, 0.25 U/ml enzyme, pH 7.3, 37° C.; for activity of xanthine oxidase on substrate (in words): conclusion from Table 1. On the procedure:
After completion of the reaction, the absorbancy of the reaction solution is measured at 500 nm. Molecular extinction coefficient of quinoneimine pigment formed in the reaction is 5.33×10^3 (Clinical Chemistry 20, 470, 1974). When a unit of enzyme activity is defined as the activity of enzyme which forms 1 μmol of hydrogen peroxide in one minute at 37° C. and at a pH of 7.3, the unit (U) of xanthine oxidase is as follows:
The same procedures as in Method II are repeated except that 0.25 U/ml xanthine oxidase and 0.1 ml of 5 mM solutions of various substrates are used, and the amount of the formed hydrogen peroxide is determined.

Data set [2] relates to xanthine oxidase derived from milk. The conditions noted are these: ferricyanide 100; cited from earlier work.
Data set [3] concerns xanthine oxidase. Nature of the data set: Experiment 3: electron acceptor of the present enzyme. The class given is biochemical, Enterobacter cloacae. On the procedure: 0.15 ml of 10 mM xanthine aqueous solution, 1.0 ml of 100 mM tris-hydrochloride buffer (pH 7.3), 0.65 ml of water and 1 ml of various electron acceptors shown in Table 3 are mixed. The mixture and a solution of xanthine oxidase obtained in Example 1 are incubated at 37° C. and then nitrogen gas is introduced into the mixture and the enzyme solution for 3~4 minutes to remove dissolved oxygen.
Then, 0.2 ml of 0.25 U/ml xanthine oxidase is added to 2.8 ml of the reaction mixture to initiate the reaction and the absorbancy is measured every 15 seconds. The values obtained during one minutes of 30 to 90 seconds after the addition of xanthine oxidase is used as data.
When oxygen is used as an acceptor, nitrogen gas is not introduced into the mixture and the reaction product, uric acid obtained using dissolved oxygen is determined by measuring the absorbancy at 295 nm.

Data set [4] relates to xanthine oxidase. Briefly: Inhibition of xanthine oxidase (Method I). The class given is biochemical, Enterobacter cloacae. The conditions noted are these: for inhibition of xanthine oxidase (in words): conclusion from Table 2. As to the method:
The reaction is carried out at 37° C. for ten minutes. […] The thus obtained value is defined as OD283. This value corresponds to the amount of uric acid formed.
Since the reaction product, uric acid has a maximum absorption at 283 nm in acidic region and the molecular extinction coefficient is 1.238×10^4 (Analytical Biochemistry 38, 65, 1970), the unit (U) of xanthine oxidase is as follows:
One unit of enzyme activity is defined as the activity of enzyme which forms 1 μmol of uric acid in one minute at 37° C. and at a pH of 7.3.
Xanthine oxidase activity is determined in the same manner as in Method I except that 0.25 U/ml xanthine oxidase solution is used and various enzyme inhibitors are added.

Data set [5] has as its system xanthine oxidase. Nature of the data set: Examples 2 and 3: xanthine oxidase activity with nucleic acid compound added to the medium. It counts as cell-based, Enterobacter cloacae KY 3066. On the procedure: In this example, 40 ml of the medium (pH 7.2) containing 0.5 g/dl yeast extract, 0.5 g/dl corn steep liquor, 0.1 g/dl peptone, 0.05 g/dl KH2 PO4, 0.1 g/dl K2 HPO4, […] and is sterilized at 120° C. for 15 minutes. One loopful of the seed culture of Enterobacter cloacae KY 3066 is inoculated into the medium and culturing is carried out at 30° C. for 48 hours.
The microbial cells are recovered from the culture liquor by centrifugation and are suspended in 20 ml of the buffer. The suspension is subjected to ultrasonic disintegration.

The conditions of data set [6]: pH 7.3.
Protocol: Hypoxanthine is oxidized by the action of the present enzyme and the formed hydrogen peroxide is reacted with a coloring reagent.
The enzyme-containing solution is subjected to reaction at 37° C. and the absorbancy of the reaction solution colored by the formation of quinoneimine derived from hydrogen peroxide is measured at 500 nm at regular intervals.
The solution is subjected to reaction at 37° C. and the absorbancy of the reaction solution is measured at 293 nm at regular intervals.
For data set [7], the system named is xanthine oxidase. The class given is biochemical, Enterobacter cloacae. On the procedure:
As a coloring solution, 0.1 M tris-hydrochloride buffer (pH 7.3) containing 10 mmol/l 4-aminoantipyrine, 10 mmol/l phenol and 490 U/100 ml peroxidase is prepared. […] The absorbancy of the reaction solution is measured at 500 nm.

Data set [8] concerns xanthine oxidase. As to the method:
The coloring solution is prepared by adding 445 U/100 ml peroxidase to 0.1 M tris-hydrochloride buffer (pH 7.3) containing 10 mmol/l 4-aminoantipyrine and 10 mmol/l phenol.
In this experiment, 40 ml of medium (pH 7.2) comprising hypoxanthine having concentrations indicated in Table 4, 0.5 g/dl yeast extract, 0.5 g/dl corn steep liquor, 0.1 g/dl peptone, 0.05 g/dl KH2 PO4, 0.1 g/dl K2 HPO4 and 0.05 g/dl MgSO4.7H2 O is poured into Sakaguchi flask and is sterilized at 120° C. for 15 minutes.
One loopful of the seed culture of Enterobacter cloacae KY 3066, FERM P 4077, NRRL B-11155 in a slant is inoculated into the medium and culturing is carried out with shaking at 30° C. for 48 hours.
After completion of the culturing, the culture liquor is subjected to centrifugation at 10,000 r.p.m for 15 minutes (hereinafter centrifugation is carried out under this condition) to obtain microbial cells. The thus obtained cells are suspended in 20 ml of 50 mM tris-hydrochloride buffer (pH 8.0) and then disrupted for ten minutes in an ultrasonic disintegration (Ultrasonic Generator KMS-250 type, made by Kubota Seisaku-sho). The resulting disrupted cell suspension is centrifuged to obtain a supernatant. Xanthine oxidase activity of the supernatant is determined according to the Determination Method II and the results are shown in Table 4 below.

Where a name gives a salt, the structure may show the parent alone. Read-outs that look alike come from different tables or passages of the source.

In the case of `Cn1cnc2c1c(=O)[nH]c(=O)n2C` [Theobromine], the Relative activity with xanthine oxidase [1] turned out to be 0%.
Regarding `O=C1C(Cl)=CC(=Nc2ccc(O)cc2)C=C1Cl` [DCPIP, 2,6-sodium salt of dichlorphenol indophenol], the Relative activity is listed as 35 in data set [2] and 9.2% in the data set on xanthine oxidase [3] (acceptor 0.04 mM, 600 nm).
On to `Oc1ncc2[nH]cnc2n1` [2-Hydroxypurine], for which, in the data set with xanthine oxidase [1], the Relative activity amounted to 88.5% and the “activity of xanthine oxidase on substrate (in words)” value (shortened to “activity of xanthine oxidase”) was “strong activity”.
For `Sc1ncnc2nc[nH]c12` [6-mercaptopurine], in the data set with xanthine oxidase [1], the Relative activity stood at 4.4%.
Regarding `O.O.O.O.O.O.O.O=S(=O)([O-])[O-].[Fe+2]` [FeSO4.7H2 O], the “inhibition of xanthine oxidase (in words)” value (“inhibition … (in words)” below) with xanthine oxidase [4] is given as “inhibitors of xanthine oxidase”. Further, the Inhibition rate with xanthine oxidase [4] (inhibitor 1 × 10^-4 M) is on record as 92.3%; in the data set on xanthine oxidase [4] (inhibitor 1 × 10^-5 M), 0%.
Turning to `c1ncc2[nH]cnc2n1` [Purine], in the data set with xanthine oxidase [1], the Relative activity came to 23.3% and the “activity of xanthine oxidase” value is on record as “strong activity”.
Consider `O=O` [Oxygen], for which the Relative activity in data set [2] is on record as 83; with xanthine oxidase [3] (dissolved oxygen, 295 nm), 100%. In addition, the “acceptor of the present enzyme (in words)” value in the data set on xanthine oxidase [3] was “best acceptor”.
Consider `NC(=O)c1ccc[n+]([C@@H]2O[C@H](COP(=O)([O-])OP(=O)(O)OC[C@H]3O[C@@H](n4cnc5c(N)ncnc54)[C@H](O)[C@@H]3O)[C@@H](O)[C@H]2O)c1` [NAD], for which the Relative activity in data set [2] was less than 1.3; in the data set on xanthine oxidase [3] (acceptor 0.1 mM, 340 nm), 0%.
Regarding `NC(=O)C1=CN([C@@H]2O[C@H](COP(=O)(O)OP(=O)(O)OC[C@H]3O[C@@H](n4cnc5c(N)ncnc54)[C@H](O)[C@@H]3O)[C@@H](O)[C@H]2O)C=CC1` [NADH], in the data set on xanthine oxidase [1], the Relative activity came out at 0%.
In turn, Cytochrome C: electron acceptor came in with a Relative activity in the data set on xanthine oxidase [3] (acceptor 0.1 mM, 550 nm) of 0%.
For `O=c1[nH]c(=O)c2ncn([C@@H]3O[C@H](CO)[C@@H](O)[C@H]3O)c2[nH]1` [Xanthosine], in the data set on xanthine oxidase [1], the Relative activity was 0%. Further, in the data set with xanthine oxidase [5] (amount of addition 0.57 g/dl), the Xanthine oxidase came to 0.20 U/ml.
In the case of `Nc1ncnc2c1ncn2[C@@H]1O[C@H](CO)[C@@H](O)[C@H]1O` [Adenosine], in the data set with xanthine oxidase [1], the Relative activity is given as 2.5%.
As for “xanthine oxidase derived from milk: xanthine oxidase derived from milk (product of Boehringer Mannheim Co.)”, the “stability of pigment (in words)” value in data set [6] is on record as “then decrease in spite of the continuous formation of uric acid”.
In the case of `Nc1nc2nc[nH]c2c(=O)[nH]1` [Guanine], in the data set with xanthine oxidase [1], the Relative activity is given as 53.3% and the “activity of xanthine oxidase” value is “strong activity”. The Xanthine oxidase in the data set with xanthine oxidase [5] (amount of addition 0.3 g/dl) is given as 0.14 U/ml.
Regarding `O=c1[nH]c(=O)c2[nH]cnc2[nH]1` [Xanthine], the “Amount of formed hydrogen peroxide [B]” value in the data set with xanthine oxidase [7] (substrate 0.15 μmol, 0.93 U xanthine oxidase, pH 7.3, 37° C., 20 minutes) came out at 0.14 µmol. Besides, the “[B]/[A] (formed hydrogen peroxide / substrate)” value with xanthine oxidase [7] (substrate 0.15 μmol, 37° C., 20 minutes) was 0.93. In the data set with xanthine oxidase [1], the Relative activity is on record as 100% and the “activity of xanthine oxidase” value is “strong activity”. This molecule also gave a Xanthine oxidase with xanthine oxidase [5] (amount of addition 0.3 g/dl) of 0.13 U/ml.
Turning to `O.O.[Cl][Cu][Cl]` [CuCl2.2H2 O], in the data set on xanthine oxidase [4], the “inhibition … (in words)” value is reported as “inhibitors of xanthine oxidase”. The Inhibition rate in the data set on xanthine oxidase [4] (inhibitor 1 × 10^-4 M) was found to be 96.3%; in the data set on xanthine oxidase [4] (inhibitor 1 × 10^-5 M), 79.6%; in the data set with xanthine oxidase [4] (inhibitor 1 × 10^-6 M) it was 12.9%; in the data set on xanthine oxidase [4] (inhibitor 1 × 10^-7 M) it was 0%.
`O=c1[nH]cnc2nc[nH]c12` [Hypoxanthine]: in the data set on xanthine oxidase [7], the “[B]/[A] (formed hydrogen peroxide / substrate)” value was determined as 1.80. Further, in the data set on xanthine oxidase [7] (pH 7.3), the “Amount of formed hydrogen peroxide [B]” value is 0.27 µmol. Further, the Relative activity in the data set on xanthine oxidase [1] is recorded as 92.3%. Moreover, in the data set with xanthine oxidase [1], the “activity of xanthine oxidase” value is recorded as “strong activity”. In addition, the Xanthine oxidase activity in the data set with xanthine oxidase [8] (hypoxanthine 0.1 g/dl) turned out to be 20.0 U/dl; in the data set on xanthine oxidase [8] (hypoxanthine 0.2 g/dl) it was 31.2 U/dl; with xanthine oxidase [8] (hypoxanthine 0.3 g/dl), 47.3 U/dl; in the data set on xanthine oxidase [8] (hypoxanthine 0.5 g/dl), 48.4 U/dl; in the data set on xanthine oxidase [8] (hypoxanthine 1.0 g/dl), 55.2 U/dl; in the data set with xanthine oxidase [8] (hypoxanthine 3.0 g/dl) it was 49.0 U/dl.
With `Nc1nc2c(ncn2[C@@H]2O[C@H](COP(=O)(O)O)[C@@H](O)[C@H]2O)c(=O)[nH]1` [Disodium 2,5'-guaninate], the Xanthine oxidase with xanthine oxidase [5] (amount of addition 0.81 g/dl) amounted to 0.30 U/ml.
For the molecule `O=C([O-])c1cc[c]([Hg][Cl])cc1.[Na+]` [PCMB, Sodium salt of pchloromercuribenzoic acid], in the data set on xanthine oxidase [4], the “inhibition … (in words)” value was “inhibitors of xanthine oxidase”. Also, the Inhibition rate with xanthine oxidase [4] (inhibitor 1 × 10^-4 M) came to 76.6%; in the data set with xanthine oxidase [4] (inhibitor 1 × 10^-5 M) it was 34.7%; with xanthine oxidase [4] (inhibitor 1 × 10^-6 M), 0%.
Turning to `O=[N+]([O-])[O-].[Ag+]` [AgNO3], the “inhibition … (in words)” value in the data set on xanthine oxidase [4] is reported as “inhibitors of xanthine oxidase”. Moreover, the Inhibition rate with xanthine oxidase [4] (inhibitor 1 × 10^-4 M) was found to be 97.8%; with xanthine oxidase [4] (inhibitor 1 × 10^-5 M), 98.2%; in the data set on xanthine oxidase [4] (inhibitor 1 × 10^-6 M), 54.8%; with xanthine oxidase [4] (inhibitor 1 × 10^-7 M) it was 0%.
Consider `O=c1[nH]c(=O)c2[nH]c(=O)[nH]c2[nH]1` [Uric acid], for which the Relative activity in the data set with xanthine oxidase [1] is reported as 0%.
In turn, `OC[C@H]1O[C@@H](n2cnc3c(O)ncnc32)[C@H](O)[C@@H]1O` [Inosine] yielded a Relative activity in the data set with xanthine oxidase [1] of 0%. Besides, in the data set with xanthine oxidase [5] (amount of addition 0.54 g/dl), the Xanthine oxidase is given as 0.20 U/ml.
On to `Cn1c(=O)c2[nH]cnc2n(C)c1=O` [Theophylline], for which, in the data set with xanthine oxidase [1], the Relative activity is 0%.
Turning to `[Cl][Cu]` [CuCl], in the data set with xanthine oxidase [4], the “inhibition … (in words)” value was “inhibitors of xanthine oxidase”. Further, the Inhibition rate is on record as 90.5% in the data set on xanthine oxidase [4] (inhibitor 1 × 10^-4 M), 53.5% in the data set with xanthine oxidase [4] (inhibitor 1 × 10^-5 M) and 2.2% with xanthine oxidase [4] (inhibitor 1 × 10^-6 M).
In turn, `Nc1nc2c(ncn2[C@@H]2O[C@H](CO)[C@@H](O)[C@H]2O)c(=O)[nH]1` [Guanosine] returned a Relative activity in the data set with xanthine oxidase [1] of 0%.
For the molecule `O=C1O[C@H]([C@@H](O)CO)C(O)=C1O` [L-ascorbic acid], in the data set with xanthine oxidase [4], the “inhibition … (in words)” value is reported as “inhibitors of xanthine oxidase”. Besides, the Inhibition rate with xanthine oxidase [4] (inhibitor 1 × 10^-3 M) worked out at 88.9%; in the data set with xanthine oxidase [4] (inhibitor 1 × 10^-4 M), 82.7%; in the data set on xanthine oxidase [4] (inhibitor 1 × 10^-5 M) it was 61.7%; in the data set with xanthine oxidase [4] (inhibitor 1 × 10^-6 M), 0%.
In the data set on xanthine oxidase [1], `Nc1ncnc2nc[nH]c12` [Adenine] yielded a Relative activity of 0%.
Turning to `NC(=O)c1ccc[n+]([C@@H]2O[C@H](COP(=O)([O-])OP(=O)(O)OC[C@H]3O[C@@H](n4cnc5c(N)ncnc54)[C@H](OP(=O)(O)O)[C@@H]3O)[C@@H](O)[C@H]2O)c1` [NADP], the Relative activity in the data set with xanthine oxidase [3] (acceptor 0.1 mM, 340 nm) is listed as 0%.
